O=C([O-])c1ccccc1.[K+]
solubility (mole fraction)
Details | in DMAc | in DMF | in ethanol | in formamide | in isobutanol | in isopropanol | in methanol | in n-butanol | in n-pentanol | in n-propanol
282.95 K | 0.000243 | 0.000325 | 0.00133 | 0.0439 | 0.000248 | 0.000225 | 0.0144 | 0.000586 | 0.000517 | 0.000735
287.95 K | 0.000263 | 0.000372 | 0.00143 | 0.0444 | 0.000284 | 0.000256 | 0.0148 | 0.000617 | 0.000604 | 0.000781
293.25 K | 0.000287 | 0.000426 | 0.00157 | 0.045 | 0.000325 | 0.000286 | 0.0153 | 0.000646 | 0.000693 | 0.000841
298.25 K | 0.000309 | 0.000502 | 0.00168 | 0.0457 | 0.000355 | 0.000314 | 0.0158 | 0.000673 | 0.000776 | 0.000892
303.35 K | 0.000333 | 0.000587 | 0.00181 | 0.0465 | 0.000402 | 0.000354 | 0.0162 | 0.000731 | 0.000865 | 0.000961
308.25 K | 0.000367 | 0.000665 | 0.00192 | 0.0473 | 0.000457 | 0.000409 | 0.0167 | 0.000795 | 0.000929 | 0.00104
312.85 K | 0.000392 | 0.000722 | 0.0021 | 0.0481 | 0.000517 | 0.000459 | 0.0172 | 0.000898 | 0.000986 | 0.00115
317.95 K | 0.000425 | 0.000778 | 0.00244 | 0.0489 | 0.000572 | 0.000511 | 0.0181 | 0.000983 | 0.00105 | 0.00126

— BigSolDB 2.1
